Measured values as given in patent publication US10087178B2, “Substituted spiropyrido[1,2-a]pyrazine derivative and medicinal use thereof as HIV integrase inhibitor” (priority 2012, dated 2018).
Counter-ions that a name gives are not always drawn. Like-named read-outs stand apart in the source and are kept apart here.

Test system: HIV-1 NL4-3 strain
Assay: Evaluation of antiviral activity: acute infection system of MT-4 cell with HIV-1 NL4-3 strain
Format: cell-based
Conditions: Human immunodeficiency virus 1, NL43, MT4, 120 h
[1] = MT-4 cells infected with HIV-1 NL4-3 strain (MOI 0.05), cultured 5 days, Cell Titer-Glo, read-out: antiviral activity (EC50)
[2] = antiviral activity, MT-4 cells infected with HIV-1 NL4-3 (MOI 0.05), 5 days culture, Cell Titer-Glo luminescence, read-out: EC50
[3] = read-out: antiviral activity (EC50), MT-4 cells infected with HIV-1 NL4-3 strain (MOI 0.05), cultured 5 days, Cell Titer-Glo
[4] = antiviral activity, MT-4 cells infected with HIV-1 NL4-3 (MOI 0.05), 5 days culture, Cell Titer-Glo luminescence

SMILES | EC50 [1] | further results
CCN1C(=O)c2c(O)c(=O)c(C(=O)NCc3cccc(Cl)c3F)cn2C[C@]12C[C@@H](COC)C2 [Example S59, N-(3-chloro-2-fluorobenzyl)-2′-ethyl-9′-hydroxy-trans-3-(methoxymethyl)-1′,8′-dioxo-1′,2′,4′,8′-tetrahydrospiro[cyclobutane-1,3′-pyrido[1,2-a]pyrazine]-7′-carboxamide hydrochloride] | 4 nM | 
CC(C)N1C(=O)c2c(O)c(=O)c(C(=O)NCc3ccc(F)cc3F)cn2C[C@@]12C[C@@H]2CO [Example T42, (1S,2S)-N-(2,4-difluorobenzyl)-9′-hydroxy-2-(hydroxymethyl)-2′-isopropyl-1′,8′-dioxo-1′,2′,4′,8′-tetrahydrospiro[cyclopropane-1,3′-pyrido[1,2-a]pyrazine]-7′-carboxamide] | 3.7 nM | 
CCN1C[C@@]2(C[C@@H]2COC)n2cc(C(=O)NCc3ccc(F)cc3F)c(=O)c(O)c2C1=O [Example T2, (1S,2S)-N-(2,4-difluroobenzyl)-2′-ethyl-9′-hydroxy-2-(methoxymethyl)-1′,8′-dioxo-1′,2′,3′,8′-tetrahydrospiro[cyclopropane-1,4′-pyrido[1,2-a]pyrazine]-7′-carboxamide hydrochloride] | 4.2 nM | 
CO[C@H]1C[C@@]2(CN(C)C(=O)c3c(O)c(=O)c(C(=O)NCc4ccc(F)cc4F)cn32)C1 [Example S13, N-(2,4-difluorobenzyl)-9′-hydroxy-trans-3-methoxy-2′-methyl-1′,8′-dioxo-1′,2′,3′,8′-tetrahydrospiro[1,2-a]pyrazine]-1,4′-pyrido[1,2-a]pyrazine]-7′-carboxamide hydrochloride] |  | EC50 [2]: 4.5 nM
CCOc1ccc(CNC(=O)c2cn3c(c(O)c2=O)C(=O)N(C)C[C@]32C[C@H]2COC)c(F)c1Cl [Example T38, (1R,2R)-N-(3-chloro-4-ethoxy-2-fluorobenzyl)-9′-hydroxy-2-(methoxymethyl)-2′-methyl-1′,8′-dioxo-1′,2′,3′,8′-tetrahydrospiro[cyclopropane-1,4′-pyrido[1,2-a]pyrazine]-7′-carboxamide hydrochloride] |  | EC50 [3]: 77 nM
CC(C)N1C[C@]2(C[C@@H]2CO)n2cc(C(=O)NCc3ccc(F)cc3F)c(=O)c(O)c2C1=O [Example 13, (1R,2S)—N-(2,4-difluorobenzyl)-9′-hydroxy-2-(hydroxymethyl)-2′-isopropyl-1′,8′-dioxo-1′,2′,3′,8′-tetrahydrospiro[cyclopropane-1,4′-pyrido[1,2-a]pyrazine]-7′-carboxamide hydrochloride] |  | EC50 [4]: 5.4 nM
CCN1C[C@]2(C[C@H](COC)C2)n2cc(C(=O)NCc3cccc(Cl)c3F)c(=O)c(O)c2C1=O [Example S47, N-(3-chloro-2-fluorobenzyl)-2′-ethyl-9′-hydroxy-cis-3-(methoxymethyl)-1′,8′-dioxo-1′,2′,3′,8′-tetrahydrospiro[cyclobutane-1,4′-pyrido[1,2-a]pyrazine]-7′-carboxamide hydrochloride] | 3.5 nM | 
COC[C@@H]1C[C@]12CN(C)C(=O)c1c(O)c(=O)c(C(=O)NCc3ccc(OC)c(Cl)c3F)cn12 [Example T36, (1R,2R)-N-(3-chloro-2-fluoro-4-methoxybenzyl)-9′-hydroxy-2-(methoxymethyl)-2′-methyl-1′,8′-dioxo-1′,2′,3′,8′-tetrahydrospiro[cyclopropane-1,4′-pyrido[1,2-a]pyrazine]-7′-carboxamide hydrochloride] |  | EC50 [3]: 10 nM
CN1C[C@]2(C[C@H](O)C2)n2cc(C(=O)NCc3cccc(Cl)c3F)c(=O)c(O)c2C1=O [Example S27, N-(3-chloro-2-fluorobenzyl)- cis-3,9′-dihydroxy-2′-methyl-1′,8′-dioxo-1′,2′,3′,8′-tetrahydrospiro[cyclobutane-1,4′-pyrido[1,2-a]pyrazine]-7′-carboxamide hydrochloride] | 14 nM | 
COc1ccc(CNC(=O)c2cn3c(c(O)c2=O)C(=O)N(C)C[C@]32C[C@H](CO)C2)c(F)c1Cl [Example S50, N-(3-chloro-2-fluoro-4-methoxybenzyl)-9′-hydroxy- cis-3-(hydroxymethyl)-2′-methyl-1′,8′-dioxo-1′,2′,3′,8′-tetrahydrospiro[cyclobutane-1,4′-pyrido[1,2-a]pyrazine]-7′-carboxamide] | 37 nM | 
CN1C[C@]2(C[C@H]2CO)n2cc(C(=O)NCc3cccc(Cl)c3F)c(=O)c(O)c2C1=O [Example T23, (1R,2R)-N-(3-chloro-2-fluorobenzyl)-9′-hydroxy-2-(hydroxymethyl)-2′-methyl-1′,8′-dioxo-1′,2′,3′,8′-tetrahydrospiro[cyclopropane-1,4′-pyrido[1,2-a]pyrazine]-7′-carboxamide hydrochloride] |  | EC50 [3]: 9.6 nM
CCN1C[C@]2(C[C@@H](O)C2)n2cc(C(=O)NCc3ccc(F)cc3F)c(=O)c(O)c2C1=O [Example S17, N-(2,4-difluorobenzyl)-2′-ethyl-trans-3,9′-dihydroxy-1′,8′-dioxo-1′,2′,3′,8′-tetrahydrospiro[cyclobutane-1,4′-pyrido[1,2-a]pyrazine]-7′-carboxamide hydrobromide] |  | EC50 [2]: 20 nM
CC(C)O[C@H]1C[C@]2(CN(C)C(=O)c3c(O)c(=O)c(C(=O)NCc4cccc(Cl)c4F)cn32)C1 [Example S41, N-(3-chloro-2-fluorobenzyl)-9′-hydroxy-cis-3-isopropoxy-2′-methyl-1′,8′-dioxo-1′,2′,3′,8′-tetrahydrospiro[cyclobutane-1,4′-pyrido[1,2-a]pyrazine]-7′-carboxamide hydrochloride] | 3.5 nM | 
CC(C)N1C[C@]2(C[C@H]2CO)n2cc(C(=O)NCc3ccc(F)cc3F)c(=O)c(O)c2C1=O [Example 11, (1R,2R)—N-(2,4-difluorobenzyl)-9′-hydroxy-2-(hydroxymethyl)-2′-isopropyl-1′,8′-dioxo-1′,2′,3′,8′-tetrahydrospiro[cyclopropane-1,4′-pyrido[1,2-a]pyrazine]-7′-carboxamide hydrochloride] |  | EC50 [4]: 5.8 nM
CN1C(=O)c2c(O)c(=O)c(C(=O)NCc3cccc(Cl)c3F)cn2C[C@]12C[C@H]2CO [Example T49, (1R,2R)-N-(3-chloro-2-fluorobenzyl)-9′-hydroxy-2-(hydroxymethyl)-2′-methyl-1′,8′-dioxo-1′,2′,4′,8′-tetrahydrospiro[cyclopropane-1,3′-pyrido[1,2-a]pyrazine]-7′-carboxamide] | 7.2 nM | 
COCCO[C@H]1C[C@@]2(CN(C(C)C)C(=O)c3c(O)c(=O)c(C(=O)NCc4ccc(F)cc4F)cn32)C1 [Example S8, N-(2,4-difluorobenzyl)-9′-hydroxy-2′-isopropyl-trans-3-(2-methoxyethoxy)-1′,8′-dioxo-1′,2′-3′,8′-tetrahydrospiro[cyclobutane-1,4′-pyrido[1,2-a]pyrazine]-7′-carboxamide hydrochloride] |  | EC50 [2]: 5.3 nM
CC(C)N1C[C@]2(C[C@H](CO)C2)n2cc(C(=O)NCc3ccc(F)cc3F)c(=O)c(O)c2C1=O [Example S22, N-(2,4-difluorobenzyl)-9′-hydroxy-cis-3-(hydroxymethyl)-2′-isopropyl-1′,8′-dioxo-1′,2′,3′,8′-tetrahydrospiro[cyclobutane-1,4′-pyrido[1,2-a]pyrazine]-7′-carboxamide hydrobromide] | 5 nM | 
CCC(=O)Oc1c2n(cc(C(=O)NCc3cccc(Cl)c3F)c1=O)[C@]1(CN(C)C2=O)C[C@H](OC)C1 [Example S65, 7′-(3-chloro-2-fluorobenzylcarbamoyl)-cis-3-methoxy-2′-methyl-1′,8′-dioxo-1′,2′,3′,8′-tetrahydrospiro[cyclobutane-1,4′-pyrido[1,2-a]pyrazin]-9′-yl propionate] | 1 nM | 
